Kd data for four molecules are collected here from ChEMBL document CHEMBL1158514, “Molecular design of small organic molecules based on structural information for a conformationally constrained peptide that binds to G-CSF receptor” (Bioorg Med Chem Lett, 2010).

Each structure is given as a SMILES string.

The target of this experiment is T1, Granulocyte colony-stimulating factor receptor (Homo sapiens, UniProt Q99062).
T1 sequence (Q99062 whole entry): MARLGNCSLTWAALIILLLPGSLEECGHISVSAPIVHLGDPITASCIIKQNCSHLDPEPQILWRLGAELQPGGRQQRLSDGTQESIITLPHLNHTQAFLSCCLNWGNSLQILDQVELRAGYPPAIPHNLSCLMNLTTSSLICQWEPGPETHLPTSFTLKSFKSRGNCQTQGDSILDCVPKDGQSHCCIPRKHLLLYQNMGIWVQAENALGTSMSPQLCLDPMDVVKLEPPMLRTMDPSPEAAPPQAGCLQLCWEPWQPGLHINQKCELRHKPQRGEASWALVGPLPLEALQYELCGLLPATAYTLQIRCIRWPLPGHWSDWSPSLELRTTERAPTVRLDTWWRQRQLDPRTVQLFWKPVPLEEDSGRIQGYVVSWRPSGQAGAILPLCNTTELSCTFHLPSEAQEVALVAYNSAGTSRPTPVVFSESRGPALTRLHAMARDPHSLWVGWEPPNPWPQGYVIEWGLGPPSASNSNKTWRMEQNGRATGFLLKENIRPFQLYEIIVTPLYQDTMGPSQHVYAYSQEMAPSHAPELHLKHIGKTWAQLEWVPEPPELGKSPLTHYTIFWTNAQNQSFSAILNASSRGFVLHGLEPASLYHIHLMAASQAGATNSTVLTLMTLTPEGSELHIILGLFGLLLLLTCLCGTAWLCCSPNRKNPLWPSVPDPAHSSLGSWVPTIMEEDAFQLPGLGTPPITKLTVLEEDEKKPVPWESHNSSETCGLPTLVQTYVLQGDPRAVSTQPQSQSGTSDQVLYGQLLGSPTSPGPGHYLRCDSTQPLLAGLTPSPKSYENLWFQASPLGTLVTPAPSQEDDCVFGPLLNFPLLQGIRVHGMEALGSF
As to the kind of experiment: Binding affinity to granulocyte colony stimulating factor receptor by SPR biosensor technique.

Consider `CC(C)CCOc1cc(OCCCN)cc(-c2ccc(CCC(N)=O)c(CCC(=O)O)c2)c1`, for which the dissociation constant Kd entry is reported as “Not Active”.

For `CC(C)CCOc1cc(CN(CCC(=O)O)c2cccc(CCC(N)=O)c2)cc(OCCCN)c1`, the Kd (read-out: Kd) was 47 µM.

Turning to `CC(C)CCOc1cc(CN(CCC(N)=O)c2cccc(CCC(=O)O)c2)cc(OCCCN)c1`, the Kd entry is recorded as “Not Active”.

Regarding `CC(C)CCOc1cc(OCCCN)cc(-c2ccc(CCC(=O)O)c(CCC(N)=O)c2)c1`, the Kd (read-out: Kd) amounted to 20 µM.

By Kd is commonly meant the concentration at which binding is half-saturated.
